Entries after “also recorded” stand apart in the source; their conditions may differ. Where two headings read alike, the source gives them in different places. Values belong to the compound of their own block, whether it stands above or below them.
Key:
HMG-CoA synthase = HMG-CoA synthase mRNA expression by reverse transcriptase-polymerase chain reaction; assay type: in vivo; settings: RT-PCR, FIG. 5
PCSK9 = PCSK9 expression by reverse transcriptase-polymerase chain reaction; assay type: in vivo; settings: RT-PCR, FIG. 7
LDL receptor = LDL receptor expression by reverse transcriptase-polymerase chain reaction in the liver; assay type: in vivo; settings: RT-PCR in the liver following treatment, FIG. 8
[1] = system: hypercholesterolemic mouse model; assay: LDL cholesterol in the hypercholesterolemic mouse model (high fat diet); assay type: in vivo
Description: HF: High Fat (60 KJ % fat content); PA: Propionic Acid. […] HFD: High Fat Diet; PA: Propionic Acid.

[2] = system: patients with dyslipidemia; assay: LDL cholesterol in patients with dyslipidemia treated with propionic acid; assay type: in vivo, human; settings: n=24, initial LDL cholesterol >110 mg/dl, after 2-6 months of treatment, FIG. 4
[3] = system: patients whose LDL cholesterol level had been adjusted to a stable level by atorvastatin; assay: Patient study: propionate added to stable atorvastatin treatment, LDL value; assay type: in vivo, human; settings: for LDL value / LDL cholesterol level (in words): 2×500 mg propionate for more than eight weeks in addition to atorvastatin, five patients, FIG. 9
Procedure: The decrease appears to be greatest in patients showing the highest initial LDL value,
FIG. 10 is a block diagram showing the result of a patient study. On the left, the diagram indicates the averaged initial value of the patients stable through administration of atorvastatin, on the right the averaged LDL value of the patients after taking 2×500 mg of propionate daily for at least eight weeks.
The patient study attests to the positive influence of 2×500 mg of sodium propionate in addition to atorvastatin.

HMG-CoA reductase = HMG-CoA reductase expression by reverse transcriptase-polymerase chain reaction; assay type: in vivo; settings: RT-PCR, FIG. 6
pigs = settings: comparatively higher doses; cited from earlier work
patients = settings: high doses, cited from earlier work
[4] = system: rats with normal and cholesterol-rich diets; settings: cited from earlier work
rats = settings: oral and rectal administration of high doses; cited from earlier work

expression of HMG-CoA synthase at mRNA level (HMG-CoA synthase): but not by atorvastatin
SMILES: CC(C)c1c(C(=O)Nc2ccccc2)c(-c2ccccc2)c(-c2ccc(F)cc2)n1CC[C@@H](O)C[C@@H](O)CC(=O)O [atorvastatin, reference compound]
expression of PCSK9 (PCSK9): increased expression; also recorded: increase in PCSK9 expression | expression of the LDL receptor (LDL receptor): Neither the propionic acid nor the atorvastatin has an effect

SMILES: CCC(=O)O [propionic acid, Propionic acid]
LDL cholesterol ([1]; propionate alone, High Fat (60 KJ % fat content), FIG. 2): reduction of LDL cholesterol | LDL cholesterol ([1]; propionic acid additionally administered to atorvastatin, High Fat Diet, FIG. 3): trend towards further reduction of LDL cholesterol | cholesterol-lowering effect (LDL cholesterol) [2]: cholesterol-lowering effect | reduction of the LDL value on average ([3]; 2×500 mg propionate daily for at least eight weeks on top of stable atorvastatin, FIG. 10): ~40% | LDL value / LDL cholesterol level (in words) [3]: the LDL value was reduced | expression of HMG-CoA synthase at mRNA level (HMG-CoA synthase): negatively regulated; also recorded: reduced expression | expression of HMG-CoA synthase at mRNA level (HMG-CoA synthase; listed as Propionate): significantly down-regulated; also recorded: much more pronounced than that of atorvastatin | expression of HMG-CoA reductase (HMG-CoA reductase): negatively regulated; also recorded: reduced expression | expression of HMG-CoA reductase (HMG-CoA reductase; listed as Propionate): significantly down-regulated | expression of PCSK9 (PCSK9): no influence | expression of PCSK9 (PCSK9; listed as Propionates): do not have an effect | expression of the LDL receptor (LDL receptor): Neither the propionic acid nor the atorvastatin has an effect | cholesterol concentration in back fat (pigs): significantly higher cholesterol concentration | cholesterol content in the liver (pigs): slight increase | total cholesterol (pigs): reduced total cholesterol | serum cholesterol level (patients; one case): slight reduction | HDL serum cholesterol concentration (patients; second case): increased

SMILES: CCC(=O)[O-].[Na+] [sodium propionate]
LDL value / LDL cholesterol level (in words) [3]: further significantly reduced | total cholesterol ([4]; rats consuming cholesterol-rich food, about 100 mg per day): significant reduction in total cholesterol | total cholesterol ([4]; rats fed a normal diet): practically no effect | liver cholesterol levels (rats): only insignificantly

Source: patent publication US11602510B2, “Agent for use in the treatment of dyslipidemia” (Flexopharm Brain GMBH & Co. KG, priority 2017, dated 2023)
